Results: patent US20090104128A1, “Denture adhesive compositions with anti-ucler agents” (Orahealth Corporation, priority 2007, published 2009)

System: mouth ulcers
Experiment: tests of cobalamin forms for treatment of mouth ulcers
Assay type: in vivo
Details: compared with other cobalamin forms (cyanocobalamin, hydroxocobalamin); tests not described

C/C1=C2/[N-][C@H]([C@H](CC(N)=O)[C@@]2(C)CCC(=O)NC[C@@H](C)OP(=O)([O-])O[C@H]2[C@@H](O)[C@@H](n3cnc4cc(C)c(C)cc43)O[C@@H]2CO)[C@]2(C)N=C(/C(C)=C3N=C(/C=C4N=C1[C@@H](CCC(N)=O)C\4(C)C)[C@@H](CCC(N)=O)[C@]\3(C)CC(N)=O)[C@@H](CCC(N)=O)[C@]2(C)CC(N)=O.[CH3-].[Co+3] [Methylcobalamin, methylcobalamin]
treatment of mouth ulcers: superior
